Assay results taken from patent publication US20230049115A1, “SYSTEM AND METHOD FOR TARGET THERMAL ANALYSIS IN COMPLEX FLUIDS” (Portland State University, priority 2021, published 2023).
Values joined by “and” are separate entries in the source; they are usually repeats but may differ in a detail not shown here. Equal values may be shown once.

Columns and labels:
[1] = DSC melting temperature of pure proteins and DNA hairpin in standard buffer (Example 2); format: physicochemical; settings: standard buffer pH=7.4, independent of concentration
Experimental: Chemicals and reagents: Standard buffer for all experiments contained 150 mM NaCl, 10 mM potassium phosphate, 15 mM sodium citrate adjusted to pH=7.4 with hydrochloric acid. Pure Proteins: Human Serum Albumin (HSA) (≥99% pure, Lot number: SLBT8667) and lysozyme (recombinant, expressed in rice, Lot number: SLCH2681). The above proteins were prepared in standard buffer and stored at 4° C. for at least 24 hours before use. Concentrations of HSA and lysozyme were confirmed spectrophotometrically at A280.
DNA: The DNA was a 20-base pair hairpin purchased from IDT and received following a standard desalting routine. […] Lyophilized DNA was resuspended in standard buffer and stored at 4° C. DNA concentration matched the manufacturer specification as determined spectrophotometrically at A260.
DSC Measurements: DSC melting experiments were made using a CSC differential scanning microcalorimeter (now T.A. instruments, New Castle, Del.). […]
Baselines of the raw ΔCp or μcal versus temperature thermograms were determined using a four-point polynomial fit, over the temperature range of the transition, consistent with previous methods (Eskew et al., Anal Biochem 2021, 612:113843; Koslen et al., Adv in Biol Chem 2019, 9; Eskew et al., Anal Biochem 2021, 628:114293). […]

streptavidin = target: T1, streptavidin (Streptomyces avidinii, UniProt P22629); test: DSC thermogram shift on streptavidin-biotin binding, in buffer and in reconstituted E. coli lysate; settings: for Streptavidin + Biotin Tm: 2 molar equivalents of biotin
T1 construct: purchased Alfa Aesar
Experimental: (§1) Preparation of Samples for DSC Measurements: E. coli lysate was prepared by resuspending powdered lysate in standard PBS buffer to make a 2.7 mg/mL lysate solution. The HEK923 cell lysate was the supernatant after initial centrifugation of the crude cell lysate and received in liquid form at unknown concentration. […] Streptavidin, captopril, lisinopril, and biotin were prepared in standard buffer. All samples were incubated for 24 hours at 4° C.
(§2) DSC Measurements: DSC melting experiments were made using a CSC differential scanning microcalorimeter (now T.A. instruments, New Castle, Del.). Samples were prepared by adding specific reaction components to pre-prepared media. For DSC melting experiments, the sample heating rate was approximately 1° C./min while monitoring changes in the excess heat (microwatts) of the sample versus temperature. […] Since all experiments involved investigating interactions of ligands with proteins using DSC, we were interested in testing the sensitivity or our approach to detect proteins and protein/ligand interactions in the background solution comprised of the crude cell lysate. Consequently, all DSC measurements were made on samples in the lysate media, E. coli lysate or HEK923 supernatant, where samples were prepared. Thermograms were acquired for the complex media background, several proteins, and mixtures of these proteins with ligands, i.e. drugs or other another protein.
(§3) Data Reduction and Analysis: Where the protein concentration was known, further refinement and normalization of the data provided the familiar DSC melting curve in the form of a plot of excess heat capacity, ΔCP, of the sample as a function of increasing temperature. Plots of ΔCP versus temperature are commonly termed DSC thermograms. In this case, the enthalpy of the transition can be estimated from the integrated area under the thermogram. These enthalpies can be used to gain valuable insight into protein structural stability (Eskew et al., Anal Biochem 2021, 612:113843). […] For these measurements, meaningful transition enthalpies cannot be determined.
(§4) Baselines of the raw ΔCP or μW versus temperature thermograms for E. coli were determined using a three point polynomial fit, over the temperature range of the transition, which produced a nearly straight line from 40° C. to 110° C. Baselines of the raw ΔCP or μW versus temperature thermograms for HEK293 samples were determined by connecting a straight line between data points at 40° C. and 100° C. This baseline was then subtracted from the raw curves, producing baseline corrected thermograms used for further comparisons and analysis. Between initial and final temperatures, ΔCp, for proteins is known to vary from 7-10 kcal/mol·K (Watanabe et al., Pharm Res. 2001, 18:1775-1781; Shrake et al., Vox sanguinis 1984, 47:7-18). Baseline choices served to effectively remove this difference (Eskew et al., Anal Biochem 2021, 612:113843; Lang et al., Biotechnology Progress 2015, 31:62-69). […] For all experiments thermograms of the media alone served as the background that was subtracted from thermograms of samples containing drugs and/or proteins in the same media. These difference thermograms provided enhanced visualization of sample-specific changes, corresponding predominantly to the ligand/protein interactions of concern.
Streptavidin-Biotin: Initial investigations explored streptavidin-biotin binding in reconstituted E. coli lysate. Binding behavior was examined under several conditions meant to mimic what might be encountered in an actual expression system. FIGS. 4A-4D and 5A-5D present results of this initial study. The thermogram of the E. coli lysate alone served as the background against which streptavidin-biotin binding was examined. Along with that of the media (alone) thermograms for lysate solutions containing streptavidin in different amounts, and streptavidin plus two molar equivalents of biotin in the background media solution are also shown in FIGS. 4A-4D. […]

[2] = target: T2, unpurified angiotensin converting enzyme 2 (ACE2) expressed in human embryonic kidney cells (HEK293) (Homo sapiens, UniProt Q9BYF1); format: binding
T2 construct: the expressed region for the purchased ACE2 was from Gln18-Ser740; His-tag; purchased RayBiotech Lot number: 02U2802LL; host or cells: HEK293

ACE2 = settings: previous molecular docking studies; cited from earlier work
COVID-19 = settings: cited from earlier work
[3] = DSC thermogram of the protein alone (Example 1: buffer, E. coli lysate or HEK293 supernatant background subtracted); format: physicochemical
Experimental: as §1, §2, §3, §4
The thermogram measured for the supernatant, without ACE2 present, served as the background against which comparisons were made. […] These curves have similar shapes but there is a clear difference for the thermogram of the supernatant containing ACE2. To isolate and enhance the specific contributions to the thermogram of ACE2 protein, the background thermogram for the supernatant alone was subtracted from that for ACE2 in the supernatant. […] This observation is in precise agreement with published results of DSC measurements on unmodified ACE2, that also found two peaks at precisely the same temperatures (Voronov et al., FEBS Letters 2002, 522:77-82). […]

[4] = 1 mg/mL Streptavidin (33%, Condition-II), E. coli lysate
[5] = 1 mg/mL Streptavidin (control), in buffer
[6] = 2 mg/mL Streptavidin (11%, Condition-III), E. coli lysate
[7] = 2 mg/mL Streptavidin (33%, Condition-I), E. coli lysate
[8] = Conditions-I and II, difference thermograms FIGS. 5A and 5B
[9] = unpurified ACE2 in HEK293 supernatant, background subtracted (FIG. 6B)

T1 sequence (P22629 25-183): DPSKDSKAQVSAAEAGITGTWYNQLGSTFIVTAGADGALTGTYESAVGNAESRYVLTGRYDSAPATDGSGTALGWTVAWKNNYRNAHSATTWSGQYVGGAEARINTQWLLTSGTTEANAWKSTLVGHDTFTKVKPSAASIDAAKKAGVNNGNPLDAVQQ
T2 sequence (Q9BYF1 18-740): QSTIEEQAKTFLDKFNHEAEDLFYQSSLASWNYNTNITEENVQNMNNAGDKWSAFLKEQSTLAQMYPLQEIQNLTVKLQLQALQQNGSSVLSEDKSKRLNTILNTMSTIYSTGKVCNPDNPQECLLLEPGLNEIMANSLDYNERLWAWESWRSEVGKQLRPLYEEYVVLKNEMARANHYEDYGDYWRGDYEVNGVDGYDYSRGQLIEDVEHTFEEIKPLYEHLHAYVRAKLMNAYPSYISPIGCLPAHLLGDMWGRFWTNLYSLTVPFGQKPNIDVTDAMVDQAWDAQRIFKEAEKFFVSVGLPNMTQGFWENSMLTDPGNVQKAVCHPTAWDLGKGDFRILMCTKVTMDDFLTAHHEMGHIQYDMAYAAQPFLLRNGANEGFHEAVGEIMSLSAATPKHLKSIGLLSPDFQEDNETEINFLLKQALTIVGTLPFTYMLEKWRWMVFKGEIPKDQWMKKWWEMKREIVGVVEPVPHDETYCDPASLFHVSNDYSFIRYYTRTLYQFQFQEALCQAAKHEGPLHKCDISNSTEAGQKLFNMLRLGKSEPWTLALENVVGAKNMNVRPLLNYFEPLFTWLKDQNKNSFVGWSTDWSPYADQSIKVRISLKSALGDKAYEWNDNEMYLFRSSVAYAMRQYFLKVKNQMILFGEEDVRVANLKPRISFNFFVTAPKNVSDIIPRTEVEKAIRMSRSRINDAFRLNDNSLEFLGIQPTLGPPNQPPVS

With “5′-CGGGCGCGTTTTCGCGCCCG-3′ (DNA CGGGCGCGTTTTCGCGCCCG; DNA, backbone and methylation of C not given here; hairpin) [DNA hairpin, 20-base single strand oligomer forming an intramolecular stem-loop hairpin, DNA standard molecule]” as the compound, how does the Tm [1] read?
The Tm was 94.34±0.06 °C.

With `O=C(O)CCCC[C@@H]1SC[C@@H]2NC(=O)N[C@@H]21` [Biotin, biotin] as the compound, how does the “Streptavidin + Biotin Tm” value (streptavidin; [4]) read?
Its value is 79.96 ± 0.36 °C.

What about the “Streptavidin + Biotin Tm” value (streptavidin; [5]) of the same compound?
Its value is 79.17 ± 0.06 °C.

What about the “Streptavidin + Biotin Tm” value (streptavidin; [6]) of the same compound?
The value was 80.71 ± 0.12 °C.

And the “Streptavidin + Biotin Tm” value (streptavidin; [7])?
The value was 81.16 ± 0.07 °C.

And the “shift up of streptavidin melting temperature with biotin” value (streptavidin; Conditions I-III)?
Its value is 1-2 °C.

And the “shift in Tm for the dominant peak on addition of biotin” value (streptavidin; [8])?
The value was roughly 1 °C.

What about the “temperature shift of streptavidin thermogram with biotin” value (streptavidin; in E. coli lysate at decreased concentrations) of the same compound?
The value was 1.4 °C and 0.9 °C.

What about the “reduction in peak height of streptavidin thermogram with biotin binding” value (streptavidin; streptavidin (1 mg/mL) + 2 molar equivalents biotin in buffer (FIG. 5D)) of the same compound?
Its value is 20%.

Which “binding to / effect on ACE2 from difference thermogram” value [2] does the source give for `C[C@H](CS)C(=O)N1CCC[C@H]1C(=O)O` [Captopril] here?
Its value is “relatively lesser effect on ACE2”.

With `NCCCC[C@H](N[C@@H](CCc1ccccc1)C(=O)O)C(=O)N1CCC[C@H]1C(=O)O` [Lisinopril] as the compound, how does the “binding to ACE2 compared with captopril (docking)” value (ACE2) read?
The value was “stronger binder to ACE2”.

And the “inhibiting COVID-19 infection” value (COVID-19)?
The value was “ineffective”.

Which “difference thermogram peak temperature (peak assigned to C-domain)” value [3, 9] does the source give for “ACE2: unpurified angiotensin converting enzyme 2 expressed in HEK293 cells, Gln18-Ser740, RayBiotech” here?
The value was 55.6 °C.

And the “difference thermogram peak temperature (peak assigned to N-domain)” value [3, 9]?
The value was 70.6 °C.

What does the source list for Streptavidin?
Streptavidin Tm [3, 4]: 79.03 ± 0.18 °C; Streptavidin Tm [3, 5]: 77.39 ± 0.05 °C; Streptavidin Tm [3, 6]: 79.82 ± 0.10 °C; Streptavidin Tm [3, 7]: 79.70 ± 0.02 °C; melting temperature of streptavidin without biotin ([3]; Conditions I-III): around 80 °C; streptavidin peak temperature [3, 8]: ~79 °C

Which Tm [1] does the source give for “lysozyme: lysozyme, recombinant, expressed in rice” here?
The Tm was 64.77±0.16 °C.
